We go through twelve compounds from patent US5516905A, “Antibiotic compounds and methods to treat gram-positive bacterial and mycoplasmal infections” (priority 1994, dated 1996).

In brackets after ≈: the same amount, converted by molar mass. Read-outs that look alike come from different tables or passages of the source. Bounds are passed on as bounds.

Data set [1] deals with T1, exo activity of peak A pol (Bacillus subtilis, UniProt P13267).
T1 construct: we prepared a crude extract of M. pulmonis; endogenous in cells; host or cells: M. pulmonis (strain KD735-15 was the strain propagated)
The data set is described as follows: Exo activity of peak A enzyme on 3'-labelled ssDNA. It is filed as biochemical, M. pulmonis. To be noted: for inhibition at 50 µM: read-out: Inhibition of ssDNA digestion. On the procedure: (§1) Exo activity was assayed as described by Low et al. (1976), supra, using denatured calf-thymus DNA incorporating [^3 H]-dTMP residues at the 3'-OH ends.
(§2) TMAU at 50 μM inhibited ssDNA digestion by about 70% in the presence of dsDNA. When the latter mixture was supplemented with 500 μM dGTP, the specific antagonist of TMAU-induced sequestration inhibition was reduced to a level of <3%.

In data set [2] the test system is M. pulmonis strain KD735-15. The experiment in a line: Mycoplasmal growth inhibition on agar (colony formation, cfu). It is filed as cell-based, Mycoplasma pulmonis. To be noted: for IC99: Mycoplasmopsis pulmonis, KD73515, series 100, 50, 25, 12.5 and 6.25 μM, read-out: Concentration required to inhibit colony formation by 99%. On the procedure:
M. pulmonis strain KD735-15 (construction described in Bhugra and Dybvig, 1992) was propagated in mycoplasmal medium, and colony-forming units (cfu) were assessed on agar as previously described (Dybvig and Cassell, 1987). M pulmonis is a representative species which is well characterized. Other publicly available strains may also be used. For example, Mycoplasma agalactiae, ATCC 35890, Mycoplasma arthritidis ATCC 13988, Mycoplasma bovigenitalium, ATCC 14173, Mycoplasma bovirhinis, ATCC 27748, Mycoplasma bovis, ATCC 25025, Mycoplasma felis, ATCC 23391, Mycoplasma gallinaceum, ATCC 33550, Mycoplasma gallinarum, ATCC 15319, Mycoplasma gallisepticum, ATCC 15302, Mycoplasma genitalium, ATCC 33530, Mycoplasma hominis, ATCC 14027, Mycoplasma hyorhinis, ATCC 17981, Mycoplasma hyosynoviae, ATCC 25591, Mycoplasma meleagridis, ATCC 25294, Mycoplasma orale, ATCC 15539, Mycoplasma pneumoniae, ATCC 15293, Mycoplasma pullorum, ATCC 33553, Mycoplasma pulmonis, ATCC 14267, Mycoplasma putrefaciens, ATCC 15718, Mycoplasma synoviae, ATCC 25204, may also be used. The inhibitors used here were prepared as described in Wright and Brown ((1990) Pharmac. Ther. 47:447-497) and were prepared at a stock concentration of 20 mM in dimethyl sulphoxide (DMSO). Growth inhibition was examined on agar by comparing cfu obtained on medium lacking or supplemented with antibiotic. DMSO alone at concentrations as high as 1% had no effect on growth or cfu capacity of M. pulmonis.
HPUra and 25 other agents selected from a large collection of structurally related compounds (Wright and Brown, 1990, Pharmac. Ther. 47:447-497) were tested against M. pulmonis at a concentration of 200 μM as described in the Experimental procedures.

The target in data set [3] is T2, M. pulmonis peak A pol activity (Pol III).
T2 construct: we prepared a crude extract of M. pulmonis; endogenous in cells; host or cells: M. pulmonis (strain KD735-15 was the strain propagated)
The experiment in a line: DNA polymerase activity assay, M. pulmonis peak A pol (Bio-Rex 70). It is filed as biochemical. To be noted: Fraction 7 from peak A; dGTP 10 μM; arylazopyrimidines reduced to hydrazino forms. On the procedure: (§3) Fraction Va (Bio-Rex 70 chromatography): Fraction IV was diluted with column buffer containing 1% Triton X-100 to reduce the concentration of NaCl to 25 mM, and then applied to a 2 ml Bio-Rex 70 (Bio-Rad) column equilibrated in column buffer containing 1% Triton X-100+25 mM NaCl. The column was washed with 5 ml of the same buffer, and the adsorbed enzyme was eluted in two distinct peaks (designated A and B) at approximately 0.15 and 0.30M NaCl, respectively. As the top panel of the figure indicates, peak A represents the HPUra-sensitive pol activity. Peak A was pooled to generate Fraction Va.
(§4) DNA pol activity was assayed as described (Barnes et al., NuC. Acids Res., 6:1203-19 (1979)), using activated calf-thymus DNA as template primer, […] [^3 H-methyl]-dTTP as the labelled dNTP substrate, and dATP, dCTP, and dGTP at 25 μM each. For determination of IC50 values of TMAU and the four arylazopyrimidines (summarized in Table 2), the concentration of dGTP was reduced from 25 to 10 μM. TMAU was used directly in enzyme assays, and arylazopyrimidines were reduced prior to assay to the active, hydrazino forms, using sodium dithionite as described by Wright and Brown (1977) J. Med. Chem. 20:1181-1185.
(§5) Five compounds were used to assess the sensitivity of peak A pol activity to HPUra-type inhibitors. These were the four compounds used in the growth experiment described above (HPUra, PUra, PCPUra, and MCPUra) as well as TMAU (6-([…]) uracil), a `second generation` derivative of the HPUra prototype, equivalent in mechanism and target specificity (Wright and Brown, 1990). The IC50 value (the concentration required for 50% inhibition) of each of these agents was determined for the peak A pol activity and for an inhibitor-sensitive control enzyme, B. subtilis Pol III.

Another data set addresses T3, B. subtilis Pol III (Bacillus subtilis, UniProt P13267).
T3 construct: B. subtilis Pol III was prepared and used as described by (Barnes); made in house
The experiment in a line: DNA polymerase activity assay, B. subtilis Pol III. It is filed as biochemical. To be noted: dGTP 10 μM; arylazopyrimidines reduced to hydrazino forms. The procedure: as §4, §5

A further data set deals with Control SA. The data set is described as follows: Minimal inhibitory concentration vs. growth of Staphylococcus aureus (control strain). It is filed as cell-based.
A further data set concerns Wild-Type BS. The experiment in a line: Minimal inhibitory concentration vs. growth of B. subtilis. Particulars: Bacillus subtilis. It is filed as cell-based.
Another data set relates to Methicillin-Resistant SA. The experiment in a line: Minimal inhibitory concentration vs. growth of methicillin-resistant Staphylococcus aureus. It is filed as cell-based.
Data set [4] deals with T4, M. pulmonis peak A pol activity (Pol III) (Bacillus subtilis, UniProt P13267).
T4 construct: we prepared a crude extract of M. pulmonis; endogenous in cells; host or cells: M. pulmonis (strain KD735-15 was the strain propagated)
The data set is described as follows: DNA polymerase activity assay, M. pulmonis peak A pol (Bio-Rex 70). It is filed as biochemical. To be noted: 200 μM HPUra. On the procedure:
as §3, §4, §5

For data set [5], the system named is M. pulmonis peak B pol activity. The data set is described as follows: DNA polymerase activity assay, M. pulmonis peak B pol (Bio-Rex 70). It is filed as biochemical. Particulars: 200 μM HPUra. The procedure:
as §3, §4
To characterize the HPUra-sensitive pol activity further, we purified it using a five-step scheme summarized in Table 1 and described in the Experimental procedures. […]

The test system of a further data set is mammalian cells. Particulars: cited from earlier work.
Data set [6] concerns T5, exo activity of peak A pol.
T5 construct: we prepared a crude extract of M. pulmonis; endogenous in cells; host or cells: M. pulmonis (strain KD735-15 was the strain propagated)
The data set is described as follows: Exo activity of peak A enzyme on 3'-labelled ssDNA. It is filed as biochemical, M. pulmonis. Particulars: TMAU 50 μM, dsDNA, plus 500 μM dATP. On the procedure:
as §1, §2

Where [7] appears, read: nucleotide 500 μM, no TMAU, sequestering conditions with dsDNA.

T3 sequence (P13267 whole entry): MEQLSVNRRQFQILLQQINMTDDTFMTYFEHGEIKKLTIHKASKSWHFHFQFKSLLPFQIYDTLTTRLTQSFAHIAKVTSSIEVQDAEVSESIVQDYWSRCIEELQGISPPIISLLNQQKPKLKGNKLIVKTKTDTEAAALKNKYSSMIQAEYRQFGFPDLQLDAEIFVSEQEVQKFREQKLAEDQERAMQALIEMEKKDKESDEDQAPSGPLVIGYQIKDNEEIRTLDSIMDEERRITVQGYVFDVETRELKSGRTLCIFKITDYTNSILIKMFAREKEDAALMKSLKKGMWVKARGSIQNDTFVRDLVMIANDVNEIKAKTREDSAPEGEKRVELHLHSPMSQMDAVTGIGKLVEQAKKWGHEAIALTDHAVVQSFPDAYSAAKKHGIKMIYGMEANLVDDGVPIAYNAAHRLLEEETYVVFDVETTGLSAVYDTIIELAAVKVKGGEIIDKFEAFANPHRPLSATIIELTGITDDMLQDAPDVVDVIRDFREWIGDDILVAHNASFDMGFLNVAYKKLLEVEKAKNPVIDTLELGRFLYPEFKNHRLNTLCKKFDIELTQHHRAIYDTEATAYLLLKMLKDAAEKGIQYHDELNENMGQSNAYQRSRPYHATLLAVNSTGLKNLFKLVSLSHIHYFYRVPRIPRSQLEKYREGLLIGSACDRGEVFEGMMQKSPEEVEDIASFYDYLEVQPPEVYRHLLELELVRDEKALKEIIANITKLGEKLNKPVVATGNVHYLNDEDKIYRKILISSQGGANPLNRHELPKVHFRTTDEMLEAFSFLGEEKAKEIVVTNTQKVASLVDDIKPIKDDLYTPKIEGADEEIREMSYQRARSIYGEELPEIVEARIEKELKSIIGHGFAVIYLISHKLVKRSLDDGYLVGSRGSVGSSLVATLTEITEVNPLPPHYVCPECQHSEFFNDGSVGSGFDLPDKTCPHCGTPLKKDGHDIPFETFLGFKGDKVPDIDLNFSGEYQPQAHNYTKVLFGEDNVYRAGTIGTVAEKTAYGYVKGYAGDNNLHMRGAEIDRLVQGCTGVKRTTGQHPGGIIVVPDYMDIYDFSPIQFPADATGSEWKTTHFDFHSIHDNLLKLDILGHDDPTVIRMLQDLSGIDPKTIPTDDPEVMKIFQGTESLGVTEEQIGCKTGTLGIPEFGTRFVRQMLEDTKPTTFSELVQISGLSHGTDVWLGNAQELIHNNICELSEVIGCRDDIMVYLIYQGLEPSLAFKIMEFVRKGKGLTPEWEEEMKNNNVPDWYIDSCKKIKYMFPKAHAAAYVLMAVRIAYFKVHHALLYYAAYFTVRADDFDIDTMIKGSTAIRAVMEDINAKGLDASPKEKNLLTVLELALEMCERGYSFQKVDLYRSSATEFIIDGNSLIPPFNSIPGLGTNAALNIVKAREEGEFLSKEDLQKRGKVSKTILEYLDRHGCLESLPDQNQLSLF
T2 sequence (P13267 whole entry): as above
T1 sequence (P13267 whole entry): as above
T4 sequence (P13267 whole entry): as above
T5 sequence (P13267 whole entry): as above

Take `Nc1nc2c(ncn2[C@H]2C[C@H](O)[C@@H](COP(=O)(O)OP(=O)(O)OP(=O)(O)O)O2)c(=O)[nH]1` [dGTP]: the “Exo Activity (%)” value in [1] (setting [7]) stood at 103%.

For the compound `Nc1ncnc2c1ncn2[C@H]1C[C@H](O)[C@@H](COP(=O)(O)OP(=O)(O)OP(=O)(O)O)O1` [dATP], the “Exo Activity (%)” value in data set [1] (setting [7]) turned out to be 101%.

Turning to `Oc1cc(N=Nc2ccc(Cl)cc2)nc(O)n1` [PCPUra, 6-(p-chlorophenylazo) uracil], the IC99 in data set [2] was under 6.25 µM. Also, the IC50 in [3] amounted to 31 µM; against B. subtilis Pol III, 57 µM.

As for `CCn1c(=O)cc(Nc2ccc3c(c2)CCC3)[nH]c1=O` [C2 H5], the MIC was 1 mg/L (≈ 3.69 µM) with Control SA, 4 mg/L (≈ 14.7 µM) in the data set on Wild-Type BS and 0.5 mg/L (≈ 1.84 µM) against Methicillin-Resistant SA.

For `COc1cccc(OC)c1C(=O)N[C@@H]1C(=O)N2[C@@H]1SC(C)(C)[C@@H]2C(=O)O` [Methicillin], the MIC against Control SA amounted to 1 mg/L (≈ 2.63 µM); against Methicillin-Resistant SA, 128 mg/L (≈ 336 µM).

With `O=c1cc(N=Nc2ccc(O)cc2)[nH]c(=O)[nH]1` [HPUra, 6-(p-Hydroxyphenylazo)-uracil], in data set [2] (200 μM), the “Inhibition of colony formation” value is reported as “completely inhibited colony formation”. For the same compound, in [4], the “Sensitivity of peak A pol activity” value was “drug-sensitive”. For the same compound, the figures for the IC50 (in [3]; at B. subtilis Pol III) were 14 µM and 11 µM, respectively. Also, in data set [5], the “Sensitivity of peak B pol activity” value is reported as “insensitive”. Moreover, the “Toxicity in mammalian cells” value with mammalian cells is “low toxicity”.

Turning to `O=c1cc(N=Nc2ccccc2)[nH]c(=O)[nH]1` [PUra, 6-(phenylazo)uracil], the IC99 in data set [2] was in the range of 6.25 to 12.5 µM. Also, the IC50 worked out at 20 µM in data set [3] and 34 µM on B. subtilis Pol III.

As to `CCCCn1c(=O)cc(Nc2ccc3c(c2)CCC3)[nH]c1=O` [nC4 H9], the results for the minimal inhibitory concentration (MIC) against Control SA, with Wild-Type BS and in the data set on Methicillin-Resistant SA were over 128 mg/L, 1.8 mg/L (≈ 6.01 µM) and 0.5 mg/L (≈ 1.67 µM), respectively.

`Cn1c(=O)cc(Nc2ccc3c(c2)CCC3)[nH]c1=O` [CH3] displayed an MIC against Wild-Type BS of 7 mg/L (≈ 27.2 µM).

As to `O=c1cc(Nc2ccc3c(c2)CCC3)[nH]c(=O)[nH]1` [TMAU, 6-(3',4'-trimethylanilino) uracil], the MIC in the data set on Control SA amounted to 8 mg/L (≈ 32.9 µM); in the data set on Wild-Type BS, 23 mg/L (≈ 94.5 µM); against Methicillin-Resistant SA it was 4 mg/L (≈ 16.4 µM). The values for the IC50 (in data set [3]; against B. subtilis Pol III) were 11 µM and 8 µM, respectively. In addition, the “Exo Activity (%)” value in [1] (TMAU 50 μM + dGTP 500 μM, sequestering conditions with dsDNA) was determined as 98%. The same compound registered an activity at 50 µM in data set [1] (TMAU 50 μM alone, sequestering conditions with dsDNA) of 31%. Moreover, the inhibition at 50 µM was under 3% in [1] (TMAU 50 μM, dsDNA, plus 500 μM dGTP) and about 70% in data set [1] (TMAU 50 μM, in the presence of dsDNA). Also, in data set [1] (TMAU 50 μM, ssDNA without dsDNA, preliminary, results not shown), the “Exo activity on ssDNA, sensitivity” value is reported as “resistant”. Besides, the “Effect of dATP on level of inhibition of ssDNA digestion” value in data set [6] is on record as “no significant effect”.

Regarding `CCCn1c(=O)cc(Nc2ccc3c(c2)CCC3)[nH]c1=O` [nC3 H7], the minimal inhibitory concentration (MIC) against Wild-Type BS amounted to 3.5 mg/L (≈ 12.3 µM).

`O=c1cc(N=Nc2cccc(Cl)c2)[nH]c(=O)[nH]1` [MCPUra, 6-(m-chlorophenylazo)uracil]: the IC99 in [2] is 12.5 µM. Besides, the IC50 worked out at 17 µM in [3] and 48 µM on B. subtilis Pol III.

A word on the IC50: it is the concentration needed to halve the response being measured. A high value points to lower potency. Usually MIC stands for the smallest concentration in the dilution series that meets the test's criterion for growth inhibition. The low end stands for a more susceptible organism, the high end for a less susceptible organism. What is called inhibition is the drop in the measured response relative to a control, in per cent.
